Measurements: patent publication US20180251425A1, “2,3,5 TRISUBSTITUTED PYRROLE DERIVATIVES AS TOPOISOMERASE INHIBITORS AND THERAPEUTIC USES THEREOF” (UNIVERSITY OF MYSORE, priority 2015, published 2018)

Key:
MCF7 = experiment: Cytotoxicity in MCF7 cells; assay type: cell-based; details: Homo sapiens, read-out: Cytotoxicity IC 50 in μM (Cell lines) MCF7
Method: (§1) Human cancer cell lines, K562, MCF7, HeLa and HEK 293T were purchased from National Centre for Cell Science, Pune, India. Cells were grown in RPMI 1640/MEM/DMEM supplemented with 10% heat-inactivated fetal bovine serum (FBS), 100 U/mL of Penicillin, and 100 μg of streptomycin/mL and incubated at 37° C. in a humidified atmosphere containing 5% CO2.
(§2) The human T cell leukemia cell line Molt4, Human acute lymphoblastic leukemia (ALL) cell line Nalm6, Human acute myelocytic leukemia (AML) cell line Reh, chronic myelogenous leukemia (CML) cell line K562, Human breast adenocarcinoma cell lines like MCF7 and human kidney cell line HEK 293T (Human embryonic kidney cell line) were selected for the purpose of preliminary anticancer screening of newly synthesized compounds (ASR1 to ASR15). To check the cytotoxicity, trypan blue dye exclusion assays, MTT assay were employed as described earlier Further, Cell cycle analysis, Mitochondrial membrane potential, Annexin-V FITC staining assay were also performed in order to understand the mode of cell death after treatment with ASR6. Further, ASR6 was also tested for its ability to inhibit topoisomerase I and II activity in vitro.
(§3) Cytotoxic effect of the newly synthesized compounds against leukemic cells was assessed using 3-(4, 5-dimethyl-2-yl02, 5-diphenyl tetrazolium bromide (MTT) assay. After exposure of compound at different concentration (0.01, 0.1, 0.5, 1, 10, 50 and 100 μM) cells were harvested and transferred into 96 well plate, MTT (5 mg/ml) was added and incubate at 37° C. for 4 h and formazan crystals were dissolved by adding solubilizing agent (10% SDS and 50% dimethyl formamide) for 1 h, finally plate was read at 570 nm (Bio-Rad, USA). Results were represented as inhibition of percentage of cell proliferation in bar diagram (n=3) (FIGS. 1 A, C, E and G).
(§4) To determine the growth inhibitory activity of the drug, 0.5×10^5 cell/ml were plated in 24 well (Biofil, USA.) in 1 ml of complete medium and treated with various concentration of the compound to test, cells were stained with 0.4% trypan blue and counted on a hemocytometer after treatment with compounds at 48 and 72 h time point. Results were represented as number of viable cells/ml in bar diagram (FIGS. 1 B, D, F, and H) (n=3).

Molt4 = experiment: Cytotoxicity (MTT / trypan blue) in Molt4 cells; assay type: cell-based; details: Homo sapiens, MOLT-4, read-out: Cytotoxicity IC 50 in μM (Cell lines) Molt4
Method: as §1
(§5) Nalm6, Molt4 and Reh cells were provided by Dr. Sathees C. Raghavan, Department of Biochemistry, IISc, Bangalore. The cells were grown under the similar culture conditions as mentioned above.
as §2, §3, §4

Molt4 cells = experiment: Mitochondrial membrane potential assay (JC-1); assay type: cell-based, Human; details: Molt4 cells, 0.1, 0.25 and 0.5 μM, 48 h
Method: Molt4 cells were seeded in 12 well plate (0.5×10^5 cells/ml), treated with different concentration of ASR6 for 48 h, (DMSO treated cells was used as vehicle control), washed with 1× phosphate buffered saline and stained with JC-1 dye (5,5′,6,6′-Tetrachloro-1,1′,3,3′-tetraethylbenzimidazolo carbocyanine iodide (0.5 μg/ml) (Calbiochem, USA) in 1 ml of media, incubated at 37° C. for 30 min. Samples were washed with phosphate buffered saline and finally resuspended the cell pellet in 300 μl of 1× phosphate buffered saline and acquired (FACSVerse™, BD Biosciences, USA) using Cell Quest Pro Software. Minimum of 10,000 cells were acquired per sample and 2, 4-Dinitrophenol (2, 4-DNP) used as positive control. Results were analyzed Flowing Software (Version 2.5) and data were presented.

Nalm6 = experiment: Cytotoxicity (MTT / trypan blue) in Nalm6 cells; assay type: cell-based; details: Homo sapiens, NALM-6, read-out: Cytotoxicity IC 50 in μM (Cell lines) Nalm6
Method: as §1, §5, §2, §3, §4

Reh = experiment: Cytotoxicity (MTT / trypan blue) in Reh cells; assay type: cell-based; details: Homo sapiens, read-out: Cytotoxicity IC 50 in μM (Cell lines) Reh
Method: as §1, §5, §2, §3, §4

CCOC(=O)c1[nH]c(-c2ccc(Cl)cc2)cc1-c1cccnc1 [ASR6, Ethyl 5-(4-chlorophenyl)-3-(pyridin-3-yl)-1H-pyrrole-2-carboxylate]
IC50 (MCF7): 0.884 µM | IC50 (Molt4): 0.195 µM | Mitochondrial membrane potential (Molt4 cells): reduction in mitochondrial membrane potential | IC50 (Nalm6): 0.344 µM | IC50 (Reh): 0.36 µM
